From patent US20250189537A1, “MULTI-FLUORESCENCE MICROFLUIDIC PLATFORM FOR EVALUATING RISKS OF SHEAR-DRIVEN ARTERIAL THROMBOSIS AND FAST ANTITHROMBOTIC DRUG SCREENING” (Board of Regents, The University of Texas System, priority 2023, published 2025)
Where a name gives a salt, the structure may show the parent alone.

Assays:
[1] = tested on: biomechanical platelet aggregation; test: Microfluidic stenosis assay (thrombus size, single fluorescence imaging); assay type: cell-based, human; details: for inhibition to the biomechanical thrombogenesis: separately and combined at twice or 20 times of human plasmatic concentrations; for thrombus formation: replacing heparin for anticoagulation
Experimental: Microfluidic devices with single-hump stenosis microchannels can be coated with VWF monomer solution. Heparin added whole blood is incubated with DiOC6 (3), or with a set of predetermined sensors. As used herein, a sensor is a compound or protein (e.g., antibody) that specifically binds a selected molecule, peptide, or protein present in a thrombus, the sensor can optionally include a detectable tag. A detectable tag can include but is not limited to a fluorescent tag. In certain aspects a first sensor set (Sensor Set 1) can include one or more of SZ22-FITC, Fg-Alexa Fluor® 405, 2.2.9-Alexa Fluor® 555 and AK4-Alexa Fluor® 647. In certain aspects a second sensor set (Sensor Set 2) can include SZ22-FITC, Annexin V-Pacific Blue, MBC 370.2-Alexa Fluor® 555 and PAC-1-Alexa Fluor® 647. A thrombogenic sample, e.g., blood, can be introduced via a reservoir at a microchannel inlet and perfused through the microchannel at a predetermined flow rate. In certain aspects the sample is moved through the microchannel using a pump withdraw mode via a syringe or similar apparatus connected to a microchannel outlet. The microchannel at the site of stenosis can be recorded in real time with multi-fluorescence imaging using appropriate equipment. In certain aspects the multi-fluorescence imaging is performed with a LED5 fluorescence light source and a multi-pass filter (excitation-emission: 391/32-435/30, 479/33-519/25, 554/24-594/32 and 638/31-695/58 nm). Autofluorescence of platelets can be detected in the 391/32-435/30 nm channel (Lohmann and Lohmann, Biochemical and biophysical research communications 152, 1410-1415, 1988), the signal intensity of which can be subtracted when calculating signals from other sensors.
Thrombus profiling assay: development and validation. Each microfluidic chip is composed of 10 rectangular (width×height: 200 μm×50 μm) channels with respective inlets and outlets for tubing connection (FIG. 1A, 1B). A pump drives a syringe to perfuse heparinized blood (0.5 mL) through the channel pre-coated with VWF. An 80% stenosis site stimulates biomechanical thrombogenesis (FIG. 1C). A perfusion rate of 18 μL min^−1 was selected, which creates a wall shear stress (WSS) of 857 dyn cm^−2 at the stenosis site according to fluid dynamics simulation (FIG. 1D). The same stenosis site WSS is achieved by an inlet wall shear rate of 1485 s-1 in a circular vessel with the same cross-sectional area, mimicking human arterioles (Yakusheva et al. Blood advances 6, 4834-46), human arteries during systole, and mouse arteries (Panteleev et al., Journal of thrombosis and haemostasis JTH 19, 588-95). The calculated Reynolds numbers in channels of different shapes are also within the same scale. […]

[2] = tested on: ADP or collagen-induced platelet aggregation; details: at much lower concentrations; cited from earlier work
[3] = phase III trials; cited from earlier work

SMILES	inhibition to the biomechanical thrombogenesis [1]	inhibition of ADP or collagen-induced platelet aggregation [2]	patient mortality vs placebo [3]	thrombus formation [1]
COC(=O)[C@H](c1ccccc1Cl)N1CCc2sccc2C1 [clopidogrel]	negligible inhibition	significantly inhibit	–	–
CC(=O)Oc1ccccc1C(=O)O [aspirin]	negligible inhibition	significantly inhibit	–	–
CCOC(=O)CCNC(=O)N[C@H]1CCN(c2ccc(C(=N)N)cc2)C1=O [orbofiban]	–	–	significantly increased	–
O=C(O)CN(CCN(CC(=O)O)CC(=O)O)CC(=O)O [EDTA, ethylenediaminetetraacetic acid]	–	–	–	attenuated
O=C(O)CC(O)(CC(=O)O)C(=O)O [citrate, sodium citrate]	–	–	–	attenuated
